The target of the assay is human Factor XIa (Homo sapiens, UniProt P03951). Description: Factor XIa enzyme inhibition assay (dose response, fluorogenic AMC substrate). It counts as biochemical. Also on record: Enzyme: Factor XIa. Conditions: purified enzyme; substrate 50 μM, enzyme 0.25 nM; read-out: hFXIa IC50. As for the experimental part: • Assay buffer: 20 mM Hepes, pH 7.4; 150 mM NaCl; 0.02% Tween 20 • Compounds: 10 mM stocks in DMSO • Substrate: 20 mM Glp-Pro-Arg-AMC, 25 mg/2.3 mL H2O (store at +4° C.) [Factor XIa, thrombin, and trypsin] • 20 mM Pro-Phe-Arg-AMC (Bachem I-1295), 25 mg/2.2 mL H2O or Boc-Leu-Gly-Arg-AMC (Bachem I-1105), 25 mg/2.07 mL H2O (store at +4° C.) [Factor Xa] • Enzyme: Factor XIa; 0.25 M in 50% glycerol (20 μg/mL) • Trypsin; 0.2 μM in 50% glycerol (4.8 μg/mL) • Thrombin; 0.2 μM in 50% glycerol (7.34 μg/mL) • Factor Xa; 0.2 μM in 50% glycerol (9.2 μg/mL)
• 1. Dilute the substrate to 100 μM in assay buffer (30 μL/6 mL). The enzyme is diluted to 0.5 nM just prior to use (12 L/6 mL for Factor XIa; 15 μL/6 mL for all of the rest.) • 2. Pipette 50 μL of substrate into each well of the 96 well (12×8) microtiter plate. (Column 1 is used as the 100% activity control and receives no compound, and Column 12 is the blank and receives no enzyme.) Add an additional 46 μL to column 2. • 3. Pipette 4 μL of each compound into the appropriate well in column 2 of the plate (unknowns assayed in triplicate, standard assayed in duplicate). The final compound concentration will be 1/50th of the stock. • 4. Serially two-fold dilute the compound by mixing the sample in column 2, removing 50 μL to the next well (column 3), mix and remove to column 4, etc. until column 11. After mixing column 11, remove 50 μL and discard. • 5. Pipette 50 μL of buffer into column 12. Initiate the reaction by adding 50 μL of enzyme solution to each well of columns 1-11 as rapidly as possible. • 6. Read the plate in a spectrophotometer (SpectraMax) at 30° C., wherein each well is measured every 60 s for 30 min. For Factor Xa assays, each well is measured every 1 min for a total of 60 min. • 7. For Factor XIa assays, the compounds are assayed, in duplicate, at 3 different starting concentrations, 20, 2, and 0.2 μM; 1:10, 1:100, and 1:1000 dilution of 10 mM stock or at 2, 0.2, and 0.02 μM; 1:100, 1:1000, and 1:10,000 dilution of 10 mM stock. Data for each concentration are combined for graphing and data fitting. • 8. Data can be used both for estimation of IC50 and for estimation of Kon.
Potential inhibitors of Factor XIa were evaluated using the following assay.
PyroGlu-Pro-Arg-7-methylaminocourin (AMC), available from CPC Scientific, Inc., is based on the substrate pyro-Glu-Pro-Arg-pNA (S-2366), available from Diapharma Group, Inc. (Columbus, Ohio), wherein the p-nitroanaline group is replaced with 7-methylaminocoumarin (AMC).
The final concentration of the substrate in the assay was 50 μM, and the final concentration of the enzyme was 0.25 nM. Inhibitors were tested by serial dilution over an appropriate range to yield a dose response curve for determination of the inhibitors' IC50 value. The assay mixture was read every minute for 30 minutes in order to generate progress curves. The plates were read in a Spectramax m5 Multimode Plate Reader (Molecular Devices LLC, Sunnyvale, Calif.). Dose response curves were fit to Equation 1 below in which A is the maximum inhibition, B is the minimum inhibition, C is the IC50, and D is the Hill coefficient.
Y=[(A−B)/(1+(X/C)^D)]+B (Equation 1)

Some results are limits rather than exact numbers.

human Factor XIa, sequence (P03951 388-625 limits assumed): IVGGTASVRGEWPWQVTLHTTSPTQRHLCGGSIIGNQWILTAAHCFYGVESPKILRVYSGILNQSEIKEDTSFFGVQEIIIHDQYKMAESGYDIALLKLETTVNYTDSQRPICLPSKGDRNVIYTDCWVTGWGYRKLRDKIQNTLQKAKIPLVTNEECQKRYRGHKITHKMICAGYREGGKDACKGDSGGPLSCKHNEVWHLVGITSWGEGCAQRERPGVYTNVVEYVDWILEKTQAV
human Factor XIa, sequence (P03951 19-387 partner limits assumed): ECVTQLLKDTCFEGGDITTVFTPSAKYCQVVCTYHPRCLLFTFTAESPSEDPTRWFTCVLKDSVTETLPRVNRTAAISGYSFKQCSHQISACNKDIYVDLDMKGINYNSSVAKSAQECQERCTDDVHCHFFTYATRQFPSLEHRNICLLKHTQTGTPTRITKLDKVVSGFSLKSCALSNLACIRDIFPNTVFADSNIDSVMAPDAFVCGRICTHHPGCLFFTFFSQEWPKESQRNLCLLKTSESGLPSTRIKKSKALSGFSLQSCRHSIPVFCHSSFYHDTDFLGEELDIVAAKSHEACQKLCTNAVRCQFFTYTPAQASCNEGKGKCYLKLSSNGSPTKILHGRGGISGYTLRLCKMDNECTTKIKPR

As for `CC[C@@H](NC(=O)N1C(=O)[C@H](Cc2ccnc(N)c2)[C@H]1C(=O)N(C)c1cccc(F)c1)c1ccc(C)nc1` [Compound 136], the IC50 (commonly the concentration at which inhibition is half-maximal) was less than 10 nM. As to `CC[C@@H](NC(=O)N1C(=O)[C@H](Cc2ccnc(N)c2)[C@H]1C(=O)N(C)c1ccncc1)c1ccc(F)c(F)c1` [Compound 93], the IC50 was 10 to 100 nM. Consider `CCN(C(=O)[C@@H]1[C@@H](Cc2ccnc(N)c2)C(=O)N1C(=O)N[C@@H](C1CCCCC1)C(F)(F)F)c1ccnc(C)c1` [Compound 34], for which the IC50 is less than 10 nM. `CN(C(=O)[C@@H]1[C@@H](Cc2ccnc(N)c2)C(=O)N1C(=O)N[C@@H](C1CCCCC1)C1CC1)c1ncccn1` [Compound 53]: the IC50 was less than 10 nM. With `CCc1cccc([C@@H](CC)NC(=O)N2C(=O)[C@H](Cc3ccnc(N)c3)[C@H]2C(=O)N(C)c2ccncc2)c1` [Compound 126], the concentration for half-maximal inhibition (IC50) was less than 10 nM.

With `CCC[C@H](NC(=O)N1C(=O)[C@H](Cc2ccnc(N)c2)[C@H]1C(=O)N(C)c1ccccc1)c1cccnc1` [Compound 69], the IC50 is 10 to 100 nM.

Turning to `CC[C@@H](NC(=O)N1C(=O)[C@H](Cc2ccnc(N)c2)[C@H]1C(=O)N(C)c1cc(C)nc(C)c1)c1cccc(C)c1` [Compound 129], the IC50 fell in the range of 10 to 100 nM. To `CCC[C@@H](NC(=O)N1C(=O)[C@H](Cc2ccnc(N)c2)[C@H]1C(=O)N(C)c1ncccn1)c1cccnc1` [Compound 74] belongs less than 10 nM; to `CC[C@@H](NC(=O)N1C(=O)[C@H](Cc2ccnc(N)c2)[C@H]1C(=O)N(C)c1ccncc1)c1cccc(F)c1F` [Compound 130], 10 to 100 nM; to `CC[C@@H](NC(=O)N1C(=O)[C@H](Cc2ccnc(N)c2)[C@H]1C(=O)N(C)c1ccccc1)c1ccc(C)nc1` [Compound 134], less than 10 nM. With `CC[C@@H](NC(=O)N1C(=O)[C@H](Cc2cc(N)ncc2C)[C@H]1C(=O)N(C)c1ccccc1)C1CCCCC1` [Compound 88], the half-maximal inhibitory concentration (IC50) is greater than 1000 nM. On to `CN(C(=O)[C@@H]1[C@@H](Cc2ccncc2)C(=O)N1C(=O)N[C@@H](C1CCCCC1)C1CC1)c1ccccc1` [Compound 63], for which the IC50 lay within 100 to 1000 nM.

In the case of `CN(C(=O)[C@@H]1[C@@H](Cc2ccnc(N)c2)C(=O)N1C(N)=O)c1ccncc1` [Compound 72], the half-inhibitory concentration (IC50) lay within 10 to 100 nM. For `CC[C@@H](NC(=O)N1C(=O)[C@H](Cc2cc(C)nc(N)c2)[C@H]1C(=O)N(C)c1ccncc1)c1ccc(C)nc1` [Compound 133], the IC50 lay within 10 to 100 nM. As to `Cc1cccc(C(NC(=O)N2C(=O)[C@H](Cc3ccnc(N)c3)[C@H]2C(=O)N(C)c2ccncc2)c2cccc(C)c2)c1` [Compound 101], the IC50 is less than 10 nM.

As for `CN(C(=O)[C@@H]1[C@@H](Cc2ccnc(N)c2)C(=O)N1C(N)=O)c1ccccc1` [Compound 57], the IC50 lay within 100 to 1000 nM.

On to `CC[C@@H](NC(=O)N1C(=O)[C@H](Cc2ccnc(NC(C)=O)c2)[C@H]1C(=O)N(C)c1ccncc1)c1cccc(Cl)c1` [Compound 107], for which the IC50 is 10 to 100 nM.

For the molecule `CC[C@@H](NC(=O)N1C(=O)[C@H](Cc2cc(N)ncc2F)[C@H]1C(=O)N(C)c1ccccc1)C1CCCCC1` [Compound 85], the IC50 was greater than 1000 nM.

Consider `CN(C(=O)[C@@H]1[C@@H](Cc2ccnc(N)c2)C(=O)N1C(=O)NCc1cccc(Cl)c1)c1ccccc1` [Compound 137], for which the IC50 was in the range of 10 to 100 nM. Regarding `CN(C(=O)[C@@H]1[C@@H](Cc2ccnc(N)c2)C(=O)N1C(=O)N[C@@H](C1CCCCC1)C(F)(F)F)c1cnccn1` [Compound 30], the IC50 is less than 10 nM. In the case of `CN(C(=O)[C@@H]1[C@@H](Cc2ccnc(N)c2)C(=O)N1C(=O)NC1CCCc2ccccc21)c1ccccc1` (stereo partly drawn) [Compound 41] it was 100 to 1000 nM; in that of `CC[C@@H](NC(=O)N1C(=O)[C@H](Cc2ccnc(N)c2)[C@H]1C(=O)N(C)c1ccccc1C)C1CCCCC1` [Compound 26], 10 to 100 nM; in that of `CN(C(=O)[C@@H]1[C@@H](Cc2ccnc(N)c2)C(=O)N1C(=O)N[C@@H](c1cccnc1)C(F)(F)F)c1ccccc1` [Compound 67], 10 to 100 nM. In the case of `CCC[C@@H](NC(=O)N1C(=O)[C@H](Cc2ccnc(N)c2)[C@H]1C(=O)N(C)c1ccncc1)c1cccnc1` [Compound 73] it was less than 10 nM; in that of `Cc1cc(N(C)C(=O)[C@@H]2[C@@H](Cc3ccnc(N)c3)C(=O)N2C(=O)N[C@@H](C2CCCCC2)C2CC2)ccn1` [Compound 56], less than 10 nM; in that of `COc1cccc(N(C)C(=O)[C@@H]2[C@@H](Cc3ccnc(N)c3)C(=O)N2C(=O)N[C@@H](C2CCCCC2)C(F)(F)F)c1` [Example 12], 10 to 100 nM. As to `CC[C@@H](NC(=O)N1C(=O)[C@H](Cc2ccnc(N)c2)[C@H]1C(=O)N(C)c1ccncc1)c1cncnc1` [Compound 102], the IC50 lay in the range of 10 to 100 nM. For the molecule `CC[C@@H](NC(=O)N1C(=O)[C@H](Cc2ccnc(N)c2)[C@H]1C(=O)N(C)c1ccncc1)c1cccc(C(F)(F)F)c1` [Compound 105], the IC50 fell in the range of 10 to 100 nM. `CC[C@@H](NC(=O)N1C(=O)[C@H](Cc2ccnc(N)c2)[C@H]1C(=O)N(C)c1cc(C)nc(C)c1)c1cccc(Cl)c1` [Compound 123]: the IC50 lay within 10 to 100 nM. In the case of `CC[C@@H](NC(=O)N1C(=O)[C@H](Cc2ccnc(N)c2)[C@H]1C(=O)N(C)c1ccccc1)c1ccc(OC(F)(F)F)cc1` [Compound 47], the IC50 lay within 100 to 1000 nM. On to `CN(C(=O)[C@@H]1[C@@H](Cc2ccnc(N)c2)C(=O)N1C(=O)N[C@@H](c1cccnc1)C1CC1)c1ncccn1` [Compound 75], for which the IC50 was less than 10 nM. On to `CC[C@@H](NC(=O)N1C(=O)[C@H](Cc2cc(N)ncc2F)[C@H]1C(=O)N(C)c1ccncc1)c1cccc(Cl)c1` [Compound 131], for which the IC50 is 100 to 1000 nM.

Turning to `CC[C@@H](NC(=O)N1C(=O)[C@H](Cc2ccnc(NC)c2)[C@H]1C(=O)N(C)c1ccncc1)c1cccc(Cl)c1` [Compound 109], the IC50 was less than 10 nM. Consider `C[C@@H](NC(=O)N1C(=O)[C@H](Cc2ccnc(N)c2)[C@H]1C(=O)N(C)c1ccccc1)c1cccnc1` [Compound 60], for which the IC50 lay in the range of 10 to 100 nM. Take `CC[C@@H](NC(=O)N1C(=O)[C@H](Cc2ccnc(N)c2)[C@H]1C(=O)N(C)c1ccccc1)c1ccncc1` [Compound 43]: the IC50 is 100 to 1000 nM. For `CC[C@@H](NC(=O)N1C(=O)[C@H](Cc2ccncc2)[C@H]1C(=O)N(C)c1ccncc1)C1CCCCC1` [Compound 65], the IC50 was in the range of 100 to 1000 nM. On to `CC[C@@H](NC(=O)N1C(=O)[C@H](Cc2ccnc(N)c2)[C@H]1C(=O)N(C)c1ccncc1)c1ccc(OC(F)(F)F)cc1` [Compound 94], for which the IC50 was 10 to 100 nM. In the case of `CN(C(=O)[C@@H]1[C@@H](Cc2ccnc(N)c2)C(=O)N1C(=O)N[C@@H](C1CCCCC1)C(F)(F)F)c1ccccn1` [Compound 16] it was less than 10 nM; in that of `CN(C(=O)[C@@H]1[C@@H](Cc2ccnc(N)c2)C(=O)N1C(=O)NC(C(F)(F)F)C(F)(F)F)c1ccccc1` [Compound 71], 10 to 100 nM; in that of `CC[C@@H](NC(=O)N1C(=O)[C@H](Cc2ccnc(N)c2)[C@H]1C(=O)N(C)c1ccncc1)c1cccc(Cl)c1Cl` [Compound 125], less than 10 nM. Consider `CC[C@@H](NC(=O)N1C(=O)[C@H](Cc2ccnc(N)c2)[C@H]1C(=O)N(C)c1ccnc(C)c1)c1cccc(C)c1` [Compound 128], for which the IC50 is less than 10 nM. In the case of `CC[C@@H](NC(=O)N1C(=O)[C@H](Cc2ccnc(N)c2)[C@H]1C(=O)N(C)c1ccncc1)c1cccc(F)c1` [Compound 103] it was less than 10 nM.

Source of the values: US20190315711A1 (eXIthera Pharmaceuticals, Inc., priority 2016, published 2019).
